From ChEMBL document CHEMBL5104106, “Designed hybrid anticancer nuclear-localized peptide inhibits aggressive cancer cell proliferation” (RSC Med Chem, 2022)
The source made the active and inactive calls. The calls are words filed in the database; no cut-off is given here. Where a SMILES comes first, the peptide text is derived from it. The star is where a group is joined. X1 = O=C(c1ccccc1-c1c2ccc(=O)cc-2oc2cc(O)ccc12)*

Tests used:
K562 [1] = test: Induction of apoptosis in human K562 cells assessed as cell death at 10 to 20 uM incubated for 24 hrs by AnnexinV-FITC/propidium iodide staining based flow cytometric analysis; format: functional; details: dose 10-20 µM
K562 [2] = test: Induction of apoptosis in human K562 cells assessed as […] incubated for 24 hrs by AnnexinV-FITC/propidium iodide staining based flow cytometric analysis (reference value: 31 +/- 0.4 %); format: functional
K562 [3] = test: Induction of apoptosis in human K562 cells incubated for 24 hrs by AnnexinV-FITC/propidium iodide staining based flow cytometric analysis; format: functional, cell-based; details: K562, 24 h
U-937 = test: Induction of apoptosis in human U-937 cells incubated for 24 hrs by AnnexinV-FITC/propidium iodide staining based flow cytometric analysis; format: functional, cell-based; details: U-937, 24 h
[4] = Drug uptake in human K562 cells at 5 uM incubated for 1 hrs by flow cytometry analysis; format: ADME, cell-based; details: k562, 1 h
K562 [5] = test: Induction of apoptosis in human K562 cells assessed as early apoptotic cells at 1.5625 to 25 uM incubated for 24 hrs by AnnexinV-FITC/propidium iodide staining based flow cytometric analysis; format: functional, cell-based; details: dose 1.5625-25 µM
K562 [6] = test: Induction of apoptosis in human K562 cells assessed as late apoptotic cells at 1.5625 to 25 uM incubated for 24 hrs by AnnexinV-FITC/propidium iodide staining based flow cytometric analysis; format: functional, cell-based; details: dose 1.5625-25 µM
[7] = Drug uptake in human U-937 cells at 5 uM incubated for 4 hrs by flow cytometric analysis; format: ADME, cell-based; details: u-937, 4 h
[8] = Drug uptake in human K562 cells at 5 uM incubated for 4 hrs by Hoechst 33258 staining based fluorescence microscopic analysis; format: ADME, cell-based; details: k562, 4 h

| Compound | Activity (K562 [2]) [%] | IC50 (K562 [3]) [µM] | IC50 (U-937) [µM] | Drug uptake [4] | also measured |
| --- | --- | --- | --- | --- | --- |
| CC[C@H](C)[C@H](NC(=O)[C@@H]1CCCN1C(=O)[C@@H](NC(=O)[C@@H](C)N)C(C)C)C(=O)N[C@@H](Cc1ccccc1)C(=O)N[C@@H](CCCCN)C(=O)N[C@@H](Cc1ccccc1)C(=O)N[C@@H](CC(C)C)C(=O)N[C@@H](CC(=O)O)C(=O)N[C@H](C(=O)N[C@@H](CC(C)C)C(=O)N[C@H](C(=O)N[C@H](C(=O)N[C@@H](CC(C)C)C(=O)N[C@@H](Cc1cnc[nH]1)C(=O)N[C@@H](CCCNC(=N)N)C(=O)N[C@H](C(=O)N[C@@H](CCC(N)=O)C(=O)N[C@@H](CCCNC(=N)N)C(=O)N[C@@H](CCCCN)C(=O)N[C@@H](CCCNC(=N)N)C(=O)N[C@@H](CCC(N)=O)C(=O)N[C@@H](CCCCN)C(=O)N[C@@H](CC(C)C)C(=O)N[C@@H](CCSC)C(=O)N1CCC[C@H]1C(=O)O)C(C)C)C(C)C)C(C)C)[C@@H](C)O | 44 |  |  |  | Activity (K562 [1]): Active |
| H-FLDTLVVLHR-OH |  | 30.1 | 374 |  |  |
| CC(C)C[C@H](NC(=O)[C@H](Cc1ccccc1)NC(=O)c1ccccc1-c1c2ccc(=O)cc-2oc2cc(O)ccc12)C(=O)N[C@@H](CC(=O)O)C(=O)N[C@H](C(=O)N[C@@H](CC(C)C)C(=O)N[C@H](C(=O)N[C@H](C(=O)N[C@@H](CC(C)C)C(=O)N[C@@H](Cc1cnc[nH]1)C(=O)N[C@@H](CCCNC(=N)N)C(=O)O)C(C)C)C(C)C)[C@@H](C)O (X1-FLDTLVVLHR-OH) |  |  |  | Active |  |
| H-FLDTLVVLHRVQRKRQKLMP-OH | 36 | 5.58 | 1390 |  | Activity (K562 [5]): Active; Activity (K562 [6]): Active |
| CSCC[C@H](NC(=O)[C@H](CC(C)C)NC(=O)[C@H](CCCCN)NC(=O)[C@H](CCC(N)=O)NC(=O)[C@H](CCCNC(=N)N)NC(=O)[C@H](CCCCN)NC(=O)[C@H](CCCNC(=N)N)NC(=O)[C@H](CCC(N)=O)NC(=O)[C@@H](NC(=O)[C@H](CCCNC(=N)N)NC(=O)[C@H](Cc1cnc[nH]1)NC(=O)[C@H](CC(C)C)NC(=O)[C@@H](NC(=O)[C@@H](NC(=O)[C@H](CC(C)C)NC(=O)[C@@H](NC(=O)[C@H](CC(=O)O)NC(=O)[C@H](CC(C)C)NC(=O)[C@H](Cc1ccccc1)NC(=O)c1ccccc1-c1c2ccc(=O)cc-2oc2cc(O)ccc12)[C@@H](C)O)C(C)C)C(C)C)C(C)C)C(=O)N1CCC[C@H]1C(=O)O (X1-FLDTLVVLHRVQRKRQKLMP-OH) |  |  |  | Active | Drug uptake [7]: Active; Drug uptake [8]: Active |
